Where “and” joins values, the source holds several entries; their conditions need not be identical. Equal values may be shown once. Marks after values point to notes of the source that are not given here.
What was measured:
rhGALNS VIMIZIM® = biological target: T1, rhGALNS VIMIZIM® (Homo sapiens, UniProt P34059); assay: Stabilization of rhGALNS under thermal denaturation (48 °C, 40 and 60 min); type: biochemical
T1 construct: purchased BioMarin (VIMIZIM, elosulfase alfa)
T1 sequence (P34059 27-522): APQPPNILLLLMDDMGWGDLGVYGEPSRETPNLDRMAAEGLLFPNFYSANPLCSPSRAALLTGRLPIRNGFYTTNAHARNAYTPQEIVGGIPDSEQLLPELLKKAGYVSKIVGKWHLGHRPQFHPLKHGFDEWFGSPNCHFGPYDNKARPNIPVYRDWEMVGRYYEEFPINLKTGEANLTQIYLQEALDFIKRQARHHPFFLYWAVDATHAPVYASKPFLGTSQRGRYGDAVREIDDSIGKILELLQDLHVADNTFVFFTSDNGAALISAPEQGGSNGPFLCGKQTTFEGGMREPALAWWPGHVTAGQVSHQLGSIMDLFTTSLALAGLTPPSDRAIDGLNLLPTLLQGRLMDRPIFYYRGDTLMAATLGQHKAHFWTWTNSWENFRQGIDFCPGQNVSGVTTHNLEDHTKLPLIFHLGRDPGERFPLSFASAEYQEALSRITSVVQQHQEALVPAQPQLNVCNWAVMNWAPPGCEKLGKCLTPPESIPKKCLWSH
Experimental: The promising IC50 values observed for 1 and 36 prompted us to assess their effects on the commercially available wild-type recombinant GALNS (rhGALNS VIMIZIM®). […] Building on these findings, we investigated the potential stabilizing effect of these compounds on the tertiary structure of GALNS through a thermal denaturation study. rhGALNS was preincubated with varying concentrations of the compounds before being subjected to heating at 48 °C for 40 and 60 min. The relative enzyme activity was expressed as the ratio between the activity measured after thermal denaturation at 48 °C and that obtained under physiological conditions at 37 °C.
Figure 3 Stabilization of rhGALNS VIMIZIM® in the presence of 1 (A) and 36 (B) was evaluated in vitro by using heat inactivation. Relative enzymatic activity after thermal treatment (48 °C) for 40 and 60 min at the indicated inhibitor concentrations (μM) with respect to the corresponding assay at 37 °C (no denaturation). Data for control were obtained as above except that no inhibitor was present. Experiments were performed in triplicate (see Supporting Information). […]
The thermal stability induced by 1 and 36 against rhGALNS VIMIZIM® was determined by measuring the hydrolysis rate with 4-methylumbelliferyl-β-galactoside-6-sulfate.Na (6.66 mM) after denaturation of enzyme at 48 °C for 40 minutes or 60 minutes with or without (Ctrl) different concentrations of compounds. […]
After incubation 20 µL of 4-methylumbelliferyl-β-galactoside-6-sulfate.Na substrate solution in Na-Acetate/acetic acid buffer (0.1 M/0.1 M, pH 4.3) containing 0.1 M NaCl, 0.02% (w/v) NaN3 and 5 mM Pb-acetate was added. […] Fluorescence was measured in a SpectraMax M2 microplate reader (Molecular-Devices) using a 365 nm excitation wavelength and a 435 nm emission wavelength. […]
Figure S57. Activity of rhGALNS VIMIZIM® was determined after incubation for 0 minutes or 40 minutes or 60 minutes at 48 °C with or without (Ctrl) different concentrations of 1 by measuring the hydrolysis rate 4-methylumbelliferyl-β-galactoside-6-sulfate.Na. […]

[1] = biological target: T2, N-acetylgalactosamine-6-sulfatase (GALNS) (Homo sapiens, UniProt P34059); set-up: method as in doi:10.1039/C6RA15806D; settings: cited from earlier work
T2 construct: Isolated leukocytes were disrupted by sonication; from tissue; host or cells: human leukocytes from healthy donors (sonicated homogenate)
T2 sequence (P34059 27-522): T1 sequence (P34059 27-522)

| Compound | enzyme activity with respect to the control after thermal denaturation (rhGALNS VIMIZIM®; 500 µM compound, both time points (40 and 60 min)) | % Inhibition (1 mM) ([1]; 1 mM inhibitor, human leukocyte extracts) | IC50 ([1]; human leukocyte extracts) [µM] | rp/n ([1]; positive MVE as previously reported) | enzyme activity with respect to the control after thermal denaturation (rhGALNS VIMIZIM®; 30 µM compound, 40 min) [fold] | enzyme activity with respect to the control after thermal denaturation (rhGALNS VIMIZIM®; 30 µM compound, 60 min) [fold] |
| --- | --- | --- | --- | --- | --- | --- |
| O=C(NC(COCc1cn(CCCCCCN2CC(O)C(O)C2CO)nn1)(COCc1cn(CCCCCCN2CC(O)C(O)C2CO)nn1)COCc1cn(CCCCCCN2CC(O)C(O)C2CO)nn1)c1cc(C(=O)NC(COCc2cn(CCCCCCN3CC(O)C(O)C3CO)nn2)(COCc2cn(CCCCCCN3CC(O)C(O)C3CO)nn2)COCc2cn(CCCCCCN3CC(O)C(O)C3CO)nn2)cc(C(=O)NC(COCc2cn(CCCCCCN3CC(O)C(O)C3CO)nn2)(COCc2cn(CCCCCCN3CC(O)C(O)C3CO)nn2)COCc2cn(CCCCCCN3CC(O)C(O)C3CO)nn2)c1 (stereo not drawn) [Compound 1] | around two-fold | 94 ^[a] % | 47 ± 5 | 9.2 and 6.5–9.2 | – | – |
| OCC1C(O)C(O)CN1CCCCCCn1cc(COCC(COCc2cn(CCCCCCN3CC(O)C(O)C3CO)nn2)(COCc2cn(CCCCCCN3CC(O)C(O)C3CO)nn2)NCc2cc(CNC(COCc3cn(CCCCCCN4CC(O)C(O)C4CO)nn3)(COCc3cn(CCCCCCN4CC(O)C(O)C4CO)nn3)COCc3cn(CCCCCCN4CC(O)C(O)C4CO)nn3)cc(CNC(COCc3cn(CCCCCCN4CC(O)C(O)C4CO)nn3)(COCc3cn(CCCCCCN4CC(O)C(O)C4CO)nn3)COCc3cn(CCCCCCN4CC(O)C(O)C4CO)nn3)c2)nn1 (stereo not drawn) [Compound 36] | – | – | – | – | 1.3 | 2.4 |

From PMC12113998, “Exploring Multivalent Architectures for Binding and Stabilization of N-Acetylgalactosamine 6-Sulfatase” (Molecules, 2025)
